Values of other authors, collected in patent publication US20200253951A1, “COMBINATION OF AN […] AGENT WITH […]/OR DO[…] FOR USE IN PREVENTING/STOPPING OF AXIAL MYOPIA IN HUMAN” (priority 2016, published 2020).

How the values were obtained:
[1] = test system: axial myopia; settings: one drop of 1% Atropine collirium at bedtime, chinese children, placebo controlled
[2] = test system: conjunctiva; settings: pediatric population, atropine 0,1%, 0,05% and 0,01%

CN1[C@@H]2CC[C@H]1C[C@@H](OC(=O)C(CO)c1ccccc1)C2 (some centres unmarked) [Atropine]
subjects in whom development of axial myopia was halted (stopping the elongation of the bulb) [1]: 90%
subjects who developed ocular redness and itching [2]: around 5%
